Consider 20 compounds from patent publication US10723711B2, “1,1,1-trifluoro-3-hydroxypropan-2-yl carbamate derivatives and 1,1,1-trifluoro-4-hydroxybutan-2-yl carbamate derivatives as MAGL inhibitors” (PFIZER INC., priority 2015, dated 2020).

Holding throughout (assay type): biochemical
The target in test [1] is T1, human recombinant Monoacylglycerol Lipase (Homo sapiens, UniProt Q99685).
T1 sequence (Q99685 1-303): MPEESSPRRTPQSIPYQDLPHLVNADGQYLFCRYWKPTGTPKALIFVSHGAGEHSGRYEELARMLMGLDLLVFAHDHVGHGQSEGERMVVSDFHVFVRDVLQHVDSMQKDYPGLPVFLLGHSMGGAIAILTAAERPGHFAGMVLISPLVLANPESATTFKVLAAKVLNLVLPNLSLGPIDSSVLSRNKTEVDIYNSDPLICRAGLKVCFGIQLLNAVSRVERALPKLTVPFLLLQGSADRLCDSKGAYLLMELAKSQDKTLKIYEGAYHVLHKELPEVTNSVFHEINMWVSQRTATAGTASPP
Kind of test: MAGL inhibition enzymatic assay, fluorogenic substrate 7-HCA, IC50 at T=0 min or after 30 minute incubation (T=30 min). The following applies: geometric mean of 2-4 determinations unless otherwise indicated. As to the method: An equal volume of 7-HCA in assay buffer with 10% DMSO was added either immediately (T=0 min) or after a 30 minute incubation (T=30 min) to initiate the reaction. […] After these dilutions, the final concentration of the test compound ranged from 3 μM to 0.03 nM. […] IC50 values were generated based on a four parameter fit model using ABASE software from IDBS.

The target in test [2] is T1, human recombinant Monoacylglycerol Lipase. Put plainly: MAGL inactivation, enzyme progress curves, kinact/KI. The following applies: from enzyme progress curves, T = 0 min protocol; geometric mean of 2-4 determinations unless otherwise indicated. As to the method:
Assessment of MAGL inhibition utilizes human recombinant Monoacylglycerol Lipase and the fluorogenic substrate 7-hydroxycoumarinyl arachidonate (7-HCA, Biomol ST-502). 400 nL of a test compound at decreasing concentration (ranging from 150 μM down to 1.5 nM) was spotted into a 384-well back plate (PerkinElmer, 6007279) using a Labcyte Echo, followed by addition of 10 μL of MAGL enzyme in assay buffer (50 mM HEPES, pH 7.4, 100 mM NaCl, 5 mM MgCl2, 0.1% Triton X-100 and 25% glycerin). An equal volume of 7-HCA in assay buffer with 10% DMSO was added either immediately (T=0 min) or after a 30 minute incubation (T=30 min) to initiate the reaction. The final concentration of MAGL enzyme was […] and 7-HCA substrate was 5 μM. After these dilutions, the final concentration of the test compound ranged from 3 μM to 0.03 nM. The reaction was allowed to progress for 60 minutes, after which the plate was read at an Ex/Em of 340/465. Percent inhibitions were calculated based on control wells containing no compound (0% inhibition) and a control compound (e.g., a MAGL inhibitor whose activity is known or was previously reported in the literature, such as one with about 100% inhibition). IC50 values were generated based on a four parameter fit model using ABASE software from IDBS. See e.g., Wang, Y. et al., “A Fluorescence-Based Assay for Monoacylglycerol Lipase Compatible with Inhibitor Screening,” Assay and Drug Development Technologies, 2008, Vol. 6 (3) pp 387-393 (reporting an assay for measuring MAGL activity).
To measure MAGL inactivation, the same protocol for the (T=0 min) MAGL inhibition IC50 assay was performed with data collected every minute to acquire enzyme progress curves at decreasing concentrations of compound.

A further test deals with T2, human recombinant FAAH (Homo sapiens, UniProt O00519).
T2 construct: purchased Cayman 10010183
T2 sequence (O00519 1-579): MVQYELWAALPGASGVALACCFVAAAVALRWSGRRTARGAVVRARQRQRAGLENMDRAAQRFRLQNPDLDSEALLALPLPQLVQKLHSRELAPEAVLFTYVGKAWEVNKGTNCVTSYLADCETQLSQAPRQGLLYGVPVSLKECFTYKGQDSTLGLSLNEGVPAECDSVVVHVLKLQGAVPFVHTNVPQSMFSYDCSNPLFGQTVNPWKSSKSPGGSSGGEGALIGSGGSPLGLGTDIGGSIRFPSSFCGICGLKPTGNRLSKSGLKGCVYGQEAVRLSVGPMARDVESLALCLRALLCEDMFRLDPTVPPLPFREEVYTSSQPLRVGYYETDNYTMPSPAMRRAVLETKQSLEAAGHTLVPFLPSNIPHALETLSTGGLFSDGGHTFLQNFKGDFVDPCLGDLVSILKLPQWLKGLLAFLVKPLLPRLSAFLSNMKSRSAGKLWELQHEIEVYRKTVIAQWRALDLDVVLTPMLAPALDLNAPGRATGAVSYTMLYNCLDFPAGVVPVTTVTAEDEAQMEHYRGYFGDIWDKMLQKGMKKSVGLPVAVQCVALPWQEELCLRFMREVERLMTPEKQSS
Put plainly: FAAH inhibition enzymatic assay, fluorescent substrate Arachidonoyl-AMC, 30 minute incubation. The following applies: T = 30 min (30 minute incubation); geometric mean of 2-4 determinations unless otherwise indicated. The protocol: Assessment of FAAH inhibition utilizes human recombinant FAAH and the fluorescent substrate, Arachidonoyl-AMC. 400 nL of a test compound at decreasing concentrations was spotted into a 384-well back plate (PerkinElmer, 6007279) using a Labcyte Echo, followed by addition of 10 μl of FAAH enzyme (Cayman 10010183) in assay buffer (50 mM Tris, pH 9.0, 1 mM EDTA). After a 30 minute incubation at room temperature, 10 μL of Arachidonyl-AMCA was added in assay buffer with 16% DMSO. Final concentration of FAAH enzyme was 0.0125 Units and AAMCA substrate was used at the Km of 5 μM. […] The reaction was allowed to progress for 60 minutes, after which the plate was read on a Molecular Devices FlexStation reader at an Ex/Em of 355/460. Percent inhibitions were calculated based on controls wells containing either no compound (0% inhibition) or a control compound (e.g., an FAAH inhibitor whose activity is known or was previously reported in the literature, such as one with about 100% inhibition). IC50 values were generated based on a four parameter fit model using ABASE software from IDBS.

Where [3] appears, read: T = 0 min (substrate added immediately), read-out: MAGL (T = 0 min) IC50.
Setting [4] is: T = 30 min (30 minute incubation), read-out: MAGL (T = 30 min) IC50.

Broadly, the IC50 is the concentration that gives 50% inhibition.

Where two headings read alike, the source gives them in different places. A value given as a limit tells only on which side of the number the result lay.

On to `COc1ccc(C2COC3(CCN(C(=O)O[C@H](CO)C(F)(F)F)CC3)C2)nc1` (mixture of isomers) [Example 121], for which the results for the IC50 (in test [1] (setting [3]); in test [1] (setting [4]); at human recombinant FAAH) were 149 nM, 20 nM and 14700 nM, respectively. Moreover, in test [2], the “MAGL kinact/KI” value is 1207 1/s per M.
Consider `O=C(O[C@H](CO)C(F)(F)F)N1CCC2(CC1)CN(S(=O)(=O)c1ccc(F)c(F)c1)CCO2` [Example 52], for which the IC50 in test [1] (setting [3]) is 56 nM; in test [1] (setting [4]) it was 5 nM; at human recombinant FAAH it was more than 30000 nM. Moreover, in test [2], the “MAGL kinact/KI” value is listed as 7262 1/s per M.
With `O=C(O[C@H](CO)C(F)(F)F)N1CCC2(CC1)CC(c1ccccc1)CO2` (single isomer, unassigned) [Example 96], the IC50 in test [1] (setting [3]) worked out at 62 nM; in test [1] (setting [4]), 5 nM; on human recombinant FAAH it was 9520 nM. In test [2], the “MAGL kinact/KI” value is reported as 18560 1/s per M.
As to `CN(C1COC2(CCN(C(=O)O[C@H](CO)C(F)(F)F)CC2)C1)S(=O)(=O)C1CCC1` (mixture of isomers) [Example 113], the IC50 in test [1] (setting [3]) was 139 nM; in test [1] (setting [4]), 10 nM; at human recombinant FAAH it was more than 25500 nM. Moreover, in test [2], the “MAGL kinact/KI” value is 6254 1/s per M.
`CC(c1ccc(F)cc1)N1CCOC2(CCN(C(=O)O[C@H](CO)C(F)(F)F)CC2)C1` (mixture of isomers) [Example 43]: the IC50 is 145 nM in test [1] (setting [3]), 13 nM in test [1] (setting [4]) and more than 30000 nM at human recombinant FAAH. Besides, the “MAGL kinact/KI” value in test [2] is listed as 3478 1/s per M.
With `Cc1cc(S(=O)(=O)N2CCOC3(CCN(C(=O)O[C@H](CO)C(F)(F)F)CC3)C2)ccc1F` [Example 51], the IC50 in test [1] (setting [3]) was 43 nM; in test [1] (setting [4]), 4 nM; on human recombinant FAAH, more than 30000 nM. Further, the “MAGL kinact/KI” value in test [2] is 10340 1/s per M.
In the same order, the values of `CCc1cccc(S(=O)(=O)N2CCOC3(CCN(C(=O)O[C@H](CO)C(F)(F)F)CC3)C2)c1` [Example 77] are 5 nM, 1 nM, 5950 nM and 403739 1/s per M.
For `CN(C(=O)C1CCC1)[C@H]1COC2(CCN(C(=O)O[C@H](CO)C(F)(F)F)CC2)C1` [Example 142] the same measures were 84 nM, 9 nM, more than 30000 nM and 3961 1/s per M.
For `O=C(O[C@H](CO)C(F)(F)F)N1CCC2(CC1)CCN(S(=O)(=O)c1nccs1)C2` [Example 134] the same measures were 96 nM, 7 nM, more than 23400 nM and 9930 1/s per M.
In the case of `O=C(O[C@H](CO)C(F)(F)F)N1CCC2(CC1)CCN(S(=O)(=O)c1cccnc1)C2` [Example 135], the IC50 in test [1] (setting [3]) was 168 nM; in test [1] (setting [4]), 13 nM; on human recombinant FAAH, more than 30000 nM. Besides, in test [2], the “MAGL kinact/KI” value is recorded as 4723 1/s per M.
For `O=C(O[C@H](CO)C(F)(F)F)N1CCC2(CC1)C[C@H](NS(=O)(=O)c1ccccc1)CO2` [Example 8, (2R)-1,1,1-Trifluoro-3-hydroxypropan-2-yl (3S)-3-[(phenylsulfonyl)amino]-1-oxa-8-azaspiro[4.5]decane-8-carboxylate] the same measures were 57 nM, 5 nM, more than 30000 nM and 6754 1/s per M.
For `O=C(O[C@H](CO)C(F)(F)F)N1CCC(CNS(=O)(=O)c2ccc(F)cc2)CC1` [Example 47] the same measures were 174 nM, 17 nM, more than 30000 nM and 5046 1/s per M.
For `C#Cc1ccc(-n2ccc([C@H]3[C@@H]4CN(C(=O)O[C@H](CO)C(F)(F)F)C[C@@H]43)n2)cc1` [Example 81] the same measures were 8 nM, 1 nM, 7540 nM and 45138 1/s per M.
`O=C(O[C@H](CO)C(F)(F)F)N1CCC2(CC1)CC(n1cccn1)CO2` (single isomer, unassigned) [Example 103]: the IC50 was 334 nM in test [1] (setting [3]), 30 nM in test [1] (setting [4]) and more than 30000 nM at human recombinant FAAH.
Regarding `O=C(O[C@H](CO)C(F)(F)F)N1CCC2(CC1)CN(S(=O)(=O)c1cccc(F)c1)CCO2` [Example 11, (2R)-1,1,1-Trifluoro-3-hydroxypropan-2-yl 4-[(3-fluorophenyl)sulfonyl]-1-oxa-4,9-diazaspiro[5.5]undecane-9-carboxylate], the IC50 in test [1] (setting [3]) is 14 nM; in test [1] (setting [4]) it was 1 nM; at human recombinant FAAH it was more than 30000 nM. Further, the “MAGL kinact/KI” value in test [2] was 147964 1/s per M.
For `C#Cc1ccc(-n2ccc(C3CCN(C(=O)O[C@H](CO)C(F)(F)F)CC3)n2)cc1` [Example 80] the same measures were 7 nM, 1 nM, 7920 nM and 126124 1/s per M.
Turning to `O=C(O[C@H](CO)C(F)(F)F)N1CCC2(CC1)CCN(C(=O)c1nccs1)C2` [Example 125], the values for the IC50 (in test [1] (setting [3]); in test [1] (setting [4]); on human recombinant FAAH) were 65 nM, 7 nM and more than 30000 nM, respectively. The “MAGL kinact/KI” value in test [2] was 5464 1/s per M.
For `O=C(O[C@H](CO)C(F)(F)F)N1CCC2(CC1)CN(S(=O)(=O)c1ccccc1F)CCO2` [Example 84] the same measures were 26 nM, 2 nM, 19200 nM and 49166 1/s per M.
In the same order, the values of `O=C(OC(C(F)(F)F)C(F)(F)CO)N1CCC2(CC1)CN(S(=O)(=O)c1ccc(F)cc1)CCO2` (racemic) [Example 19, 1,1,1,3,3-Pentafluoro-4-hydroxybutan-2-yl 4-[(4-fluorophenyl)sulfonyl]-1-oxa-4,9-diazaspiro[5.5]undecane-9-carboxylate] are 95 nM, 8 nM, more than 30000 nM and 2397 1/s per M.
For the compound `Cc1ccc(C2COC3(CCN(C(=O)O[C@H](CO)C(F)(F)F)CC3)C2)cn1` (mixture of isomers) [Example 123], the figures for the IC50 (in test [1] (setting [3]); in test [1] (setting [4]); at human recombinant FAAH) were 349 nM, 30 nM and 24600 nM, respectively.
